The source of these data is patent US11673890B2, “N1-pyrazolospiroketone acetyl-CoA carboxylase inhibitors” (Pfizer Inc., priority 2010, dated 2023).

Test [1] addresses T1, recombinant human ACC2 (rhACC2) (Homo sapiens, UniProt O00763, V2141I).
T1 construct: a full length Cytomax clone of ACC2 was purchased from Cambridge Bioscience Limited; made in house; host or cells: CHO cells (tetracycline-inducible, pcDNA5 FRT TO-TOPO)
Nature of the test: recombinant hACC2 Transcreener assay (ADP detection FP). Type of test: biochemical. To be noted: 50 μM ATP, minimum of n=3.

The target of test [2] is T2, recombinant human ACC1 (rhACC1) (Homo sapiens, UniProt Q13085, DEL44-44).
T2 construct: infected with recombinant baculovirus containing full length human ACC1 cDNA; made in house; host or cells: SF9 insect cells (baculovirus)
Nature of the test: recombinant hACC1 Transcreener assay (ADP detection FP). Type of test: biochemical. Conditions: recombinant hACC1 Transcreener assay, 50 μM ATP, minimum of n=3; read-out: hACC1.

T1 sequence (O00763 whole entry V2141I): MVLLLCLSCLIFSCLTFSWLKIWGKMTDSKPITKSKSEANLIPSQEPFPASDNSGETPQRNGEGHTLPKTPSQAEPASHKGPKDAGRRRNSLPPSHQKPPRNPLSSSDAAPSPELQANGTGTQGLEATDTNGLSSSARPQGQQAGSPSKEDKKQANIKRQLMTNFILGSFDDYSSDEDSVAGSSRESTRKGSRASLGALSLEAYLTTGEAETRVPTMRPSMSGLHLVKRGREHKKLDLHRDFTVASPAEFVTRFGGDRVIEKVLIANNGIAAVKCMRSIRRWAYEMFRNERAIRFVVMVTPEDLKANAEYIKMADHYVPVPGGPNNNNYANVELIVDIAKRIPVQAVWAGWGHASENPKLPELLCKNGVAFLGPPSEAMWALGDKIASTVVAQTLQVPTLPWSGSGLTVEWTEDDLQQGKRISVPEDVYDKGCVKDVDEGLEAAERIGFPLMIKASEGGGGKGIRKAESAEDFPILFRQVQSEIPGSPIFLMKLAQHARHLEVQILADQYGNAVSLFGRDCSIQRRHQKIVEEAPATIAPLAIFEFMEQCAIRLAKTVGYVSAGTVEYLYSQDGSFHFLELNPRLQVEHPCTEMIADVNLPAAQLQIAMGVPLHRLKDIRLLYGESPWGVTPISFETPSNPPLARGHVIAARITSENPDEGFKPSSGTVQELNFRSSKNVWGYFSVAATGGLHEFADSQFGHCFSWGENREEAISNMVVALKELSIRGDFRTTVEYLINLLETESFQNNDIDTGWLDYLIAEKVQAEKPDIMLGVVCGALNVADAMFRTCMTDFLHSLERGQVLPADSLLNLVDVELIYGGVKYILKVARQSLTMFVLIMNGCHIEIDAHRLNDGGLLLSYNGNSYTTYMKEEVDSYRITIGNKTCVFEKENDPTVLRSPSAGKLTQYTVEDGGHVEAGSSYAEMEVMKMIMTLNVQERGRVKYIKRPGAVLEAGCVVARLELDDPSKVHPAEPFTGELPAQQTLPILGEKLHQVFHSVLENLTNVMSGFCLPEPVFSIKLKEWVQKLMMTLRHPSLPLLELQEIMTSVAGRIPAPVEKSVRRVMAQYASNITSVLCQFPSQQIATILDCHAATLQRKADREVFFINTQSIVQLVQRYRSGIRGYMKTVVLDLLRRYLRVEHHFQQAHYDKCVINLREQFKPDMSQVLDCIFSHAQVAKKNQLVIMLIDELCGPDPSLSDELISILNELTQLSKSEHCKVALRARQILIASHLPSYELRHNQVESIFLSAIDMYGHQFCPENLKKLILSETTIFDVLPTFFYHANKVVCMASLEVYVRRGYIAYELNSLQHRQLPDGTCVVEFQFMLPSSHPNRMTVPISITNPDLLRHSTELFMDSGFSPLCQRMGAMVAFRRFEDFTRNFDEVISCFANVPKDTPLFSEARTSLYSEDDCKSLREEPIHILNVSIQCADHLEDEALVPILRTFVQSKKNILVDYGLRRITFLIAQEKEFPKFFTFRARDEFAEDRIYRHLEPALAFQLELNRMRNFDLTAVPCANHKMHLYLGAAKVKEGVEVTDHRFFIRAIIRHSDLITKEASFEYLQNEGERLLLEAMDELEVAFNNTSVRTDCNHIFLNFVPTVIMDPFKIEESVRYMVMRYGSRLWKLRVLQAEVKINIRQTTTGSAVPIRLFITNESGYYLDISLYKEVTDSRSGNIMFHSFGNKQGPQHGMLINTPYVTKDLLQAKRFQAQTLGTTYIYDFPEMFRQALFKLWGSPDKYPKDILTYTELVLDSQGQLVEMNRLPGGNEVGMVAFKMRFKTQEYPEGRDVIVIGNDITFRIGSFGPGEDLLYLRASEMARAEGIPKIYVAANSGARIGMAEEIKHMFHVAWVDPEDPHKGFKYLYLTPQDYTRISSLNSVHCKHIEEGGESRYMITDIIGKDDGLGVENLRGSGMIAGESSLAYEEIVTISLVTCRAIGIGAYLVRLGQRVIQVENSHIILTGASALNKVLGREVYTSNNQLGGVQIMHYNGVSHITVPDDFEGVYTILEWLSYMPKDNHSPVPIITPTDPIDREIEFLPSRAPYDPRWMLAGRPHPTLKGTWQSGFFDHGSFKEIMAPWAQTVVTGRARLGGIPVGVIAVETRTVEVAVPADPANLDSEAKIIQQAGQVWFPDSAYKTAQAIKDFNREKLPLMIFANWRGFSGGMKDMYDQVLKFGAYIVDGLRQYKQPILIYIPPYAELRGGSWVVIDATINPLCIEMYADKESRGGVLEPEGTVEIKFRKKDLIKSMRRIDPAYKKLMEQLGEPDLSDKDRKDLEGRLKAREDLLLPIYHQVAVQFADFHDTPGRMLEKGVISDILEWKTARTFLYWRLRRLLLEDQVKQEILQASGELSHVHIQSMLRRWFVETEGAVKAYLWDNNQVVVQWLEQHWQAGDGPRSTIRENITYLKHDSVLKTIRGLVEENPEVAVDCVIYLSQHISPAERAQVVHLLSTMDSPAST

In the case of `CNc1ncc(-c2cccc(C(=O)O)c2)cc1C(=O)N1CCC2(CC1)CC(=O)c1c(cnn1C(C)C)C2` [Example 43, 3-{5-[(1-isopropyl-7-oxo-1,4,6,7-tetrahydro-1′H-spiro[indazole-5,4′-piperidin]-1′-yl)carbonyl]-6-(methylamino)pyridin-3-yl}benzoic acid], the results for the IC50 in test [1] and in test [2] were 133 nM and 98.4 nM, respectively.

`CNc1ncc(-c2ccc(C(=O)O)cc2)cc1C(=O)N1CCC2(CC1)CC(=O)c1c(cnn1C(C)C)C2` [Example 44, 4-{5-[(1-isopropyl-7-oxo-1,4,6,7-tetrahydro-1′H-spiro[indazole-5,4′-piperidin]-1′-yl)carbonyl]-6-(methylamino)pyridin-3-yl}benzoic acid]: the results for the IC50 in test [1] and in test [2] were 35.9 nM and 34.4 nM, respectively.

Regarding `CC(C)n1ncc2c1C(=O)CC1(CCN(C(=O)c3nc4cc(-c5ccc(C(=O)O)cc5)ccc4[nH]3)CC1)C2` [Example 46, 4-{2-[(1-isopropyl-7-oxo-1,4,6,7-tetrahydro-1′H-spiro[indazole-5,4′-piperidin]-1′-yl)carbonyl]-1H-benzimidazol-5-yl}benzoic acid], the IC50 in test [1] came to 15.7 nM; in test [2], 11.6 nM.

Regarding `CC(C)n1ncc2c1C(=O)CC1(CCN(C(=O)c3nc4cc(-c5cccc(C(=O)O)c5)ccc4[nH]3)CC1)C2` [Example 47, 3-{2-[(1-isopropyl-7-oxo-1,4,6,7-tetrahydro-1′H-spiro[indazole-5,4′-piperidin]-1′-yl)carbonyl]-1H-benzimidazol-5-yl}benzoic acid], the results for the IC50 in test [1] and in test [2] were 25.7 nM and 32.5 nM, respectively.

As to `CC(C)n1ncc2c1C(=O)CC1(CCN(C(=O)c3ccc(-c4cccc(-c5nnn[nH]5)c4)cc3)CC1)C2` [Example 48, 1-isopropyl-1′-{[3′-(1H-tetrazol-5-yl)biphenyl-4-yl]carbonyl}-1,4-dihydrospiro[indazole-5,4′-piperidin]-7(6H)-one], the IC50 turned out to be 28 nM in test [1] and 59.5 nM in test [2].

Regarding `CC(C)(C)n1ncc2c1C(=O)CC1(CCN(C(=O)c3ccc(-c4cccc(-c5nnn[nH]5)c4)cc3)CC1)C2` [Example 49, 1-tert-butyl-1′-{[3′-(1H-tetrazol-5-yl)biphenyl-4-yl]carbonyl}-1,4-dihydrospiro[indazole-5,4′-piperidin]-7(6H)-one], the IC50 in test [1] amounted to 24.7 nM; in test [2], 54.7 nM.
